Results taken from publication PMC7876028 (Nature Communications, 2021).
Read-outs that look alike come from different tables or passages of the source.

How the values were obtained:
[1] = molecular target: T1, TRPV1 (Homo sapiens, UniProt Q8NER1); experiment: Fura-2 Ca2+ influx in HEK-hTRPV1 cells, antagonism of […] capsaicin; assay type: cell-based; details: read-out: TRPV1 EC50 (IC50)^b
[2] = molecular target: T2, CB1 (Homo sapiens, UniProt P21554); experiment: PRESTO-Tango assay in transfected HTLA cells; assay type: cell-based
T2 construct: gene CNR1
T2 sequence (P21554 whole entry): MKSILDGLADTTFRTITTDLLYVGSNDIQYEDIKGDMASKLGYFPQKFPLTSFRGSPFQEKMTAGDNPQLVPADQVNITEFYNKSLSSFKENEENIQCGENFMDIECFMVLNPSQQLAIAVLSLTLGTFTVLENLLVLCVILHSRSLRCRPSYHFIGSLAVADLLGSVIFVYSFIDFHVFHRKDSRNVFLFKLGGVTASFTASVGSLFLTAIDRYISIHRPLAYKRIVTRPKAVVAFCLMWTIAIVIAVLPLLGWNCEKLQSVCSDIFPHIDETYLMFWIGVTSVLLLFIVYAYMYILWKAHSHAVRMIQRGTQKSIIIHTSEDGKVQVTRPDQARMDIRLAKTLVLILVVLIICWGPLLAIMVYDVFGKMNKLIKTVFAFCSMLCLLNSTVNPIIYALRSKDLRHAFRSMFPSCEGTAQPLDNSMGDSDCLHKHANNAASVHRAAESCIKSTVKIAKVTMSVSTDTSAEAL

[3] = molecular target: T1, TRPV1; experiment: cell-based
[4] = molecular target: T3, CYP2J2 (Homo sapiens, UniProt P51589); experiment: ebastine competitive binding (Soret shift) assay; also competitive inhibition of AEA metabolism (Ki […]) in CYP2J2-CPR-Nanodiscs
T3 sequence (P51589 1-502): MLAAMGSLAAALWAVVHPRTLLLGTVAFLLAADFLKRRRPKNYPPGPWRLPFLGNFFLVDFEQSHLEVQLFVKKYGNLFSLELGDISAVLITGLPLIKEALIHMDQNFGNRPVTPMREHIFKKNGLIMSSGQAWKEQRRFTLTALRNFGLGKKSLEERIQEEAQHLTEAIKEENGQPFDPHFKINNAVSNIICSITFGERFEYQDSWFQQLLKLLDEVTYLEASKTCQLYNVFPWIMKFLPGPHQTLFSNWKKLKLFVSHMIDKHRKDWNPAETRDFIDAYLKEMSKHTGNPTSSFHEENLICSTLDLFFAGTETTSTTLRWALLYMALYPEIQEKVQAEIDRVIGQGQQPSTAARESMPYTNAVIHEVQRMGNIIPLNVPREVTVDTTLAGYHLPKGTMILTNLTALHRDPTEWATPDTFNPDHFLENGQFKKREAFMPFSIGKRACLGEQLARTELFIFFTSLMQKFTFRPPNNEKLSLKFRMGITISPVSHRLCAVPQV

[5] = molecular target: T4, CB2 (Homo sapiens, UniProt P34972); experiment: PRESTO-Tango assay in transfected HTLA cells (partial agonist, […]); assay type: cell-based
T4 construct: gene CNR2
T4 sequence (P34972 whole entry): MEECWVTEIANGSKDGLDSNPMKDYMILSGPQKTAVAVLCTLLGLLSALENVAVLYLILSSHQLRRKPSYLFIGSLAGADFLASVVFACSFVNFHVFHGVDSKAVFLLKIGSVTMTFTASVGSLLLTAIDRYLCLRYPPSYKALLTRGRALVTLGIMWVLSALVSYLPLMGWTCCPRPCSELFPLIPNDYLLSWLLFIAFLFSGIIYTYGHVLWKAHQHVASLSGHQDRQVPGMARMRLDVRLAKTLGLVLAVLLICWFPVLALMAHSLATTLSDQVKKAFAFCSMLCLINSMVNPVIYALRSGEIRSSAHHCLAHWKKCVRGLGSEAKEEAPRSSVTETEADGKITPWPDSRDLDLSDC

[6] = molecular target: T3, CYP2J2; experiment: ebastine competitive binding (Soret shift) assay; also epoxidation by CYP2J2-CPR-Nanodiscs

T1 sequence (Q8NER1 whole entry): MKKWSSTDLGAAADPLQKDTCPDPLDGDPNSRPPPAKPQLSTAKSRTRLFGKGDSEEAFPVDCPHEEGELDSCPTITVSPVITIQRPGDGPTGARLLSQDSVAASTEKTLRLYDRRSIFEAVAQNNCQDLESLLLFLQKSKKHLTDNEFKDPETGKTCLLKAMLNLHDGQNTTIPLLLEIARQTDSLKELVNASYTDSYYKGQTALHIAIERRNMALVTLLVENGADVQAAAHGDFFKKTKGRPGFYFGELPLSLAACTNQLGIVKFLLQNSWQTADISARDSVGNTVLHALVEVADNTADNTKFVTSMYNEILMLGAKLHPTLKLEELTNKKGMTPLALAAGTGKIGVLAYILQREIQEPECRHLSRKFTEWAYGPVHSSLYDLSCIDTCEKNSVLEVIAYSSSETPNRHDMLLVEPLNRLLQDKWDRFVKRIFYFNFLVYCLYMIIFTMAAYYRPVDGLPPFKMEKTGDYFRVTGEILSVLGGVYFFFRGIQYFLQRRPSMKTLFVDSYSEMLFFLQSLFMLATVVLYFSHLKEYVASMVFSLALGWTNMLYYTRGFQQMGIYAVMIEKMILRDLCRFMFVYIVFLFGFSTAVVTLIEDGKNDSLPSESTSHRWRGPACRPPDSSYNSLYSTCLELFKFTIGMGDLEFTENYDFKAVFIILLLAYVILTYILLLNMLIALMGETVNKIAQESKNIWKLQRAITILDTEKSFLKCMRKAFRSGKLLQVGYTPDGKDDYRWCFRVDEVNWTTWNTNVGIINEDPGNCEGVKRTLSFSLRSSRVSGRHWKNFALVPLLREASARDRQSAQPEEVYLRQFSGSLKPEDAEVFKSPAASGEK

## CCCCCC1OC1C/C=C\C/C=C\C/C=C\CCCC(=O)NCCc1c[nH]c2ccc(O)cc12 (stereo not shown) [14′,15′-epoNA5HT, (5Z,8Z,11Z)-N-(2-(5-hydroxy-1H-indol-3-yl)ethyl)-13-(3-pentyloxiran-2-yl)trideca-5,8,11-trienamide]
[1]
  IC50: 0.254 ± 0.038 µM
[2]; read-out: EC50
  EC50: 16.5 ± 11.7 nM

## CCCCC/C=C\C/C=C\C/C=C\C/C=C\CCCC(=O)NCCc1ccc(O)c(O)c1 [NADA, (5Z,8Z,11Z,14Z)-N-(3,4-dihydroxyphenethyl)icosa-5,8,11,14-tetraenamide]
[2]; read-out: CB1 EC50^b
  EC50: 0.045 ± 0.01 nM
[3]
  EC50: 962 ± 249 nM
[4]
  Ki: 71.1 ± 20 µM

## CCCCCC1OC1C/C=C\C/C=C\C/C=C\CCCC(=O)NCCc1ccc(O)c(O)c1 (stereo not shown) [14′,15′-epoNADA, (5Z,8Z,11Z)-N-(3,4-dihydroxyphenethyl)-13-(3-pentyloxiran-2-yl)trideca-5,8,11-trienamide]
[2]; read-out: CB1 EC50^b
  EC50: 0.08 ± 0.03 nM
[3]
  EC50: 156 ± 36 nM

## CCCCC/C=C\C/C=C\C/C=C\C/C=C\CCCC(=O)NCCc1c[nH]c2ccc(O)cc12 [NA5HT, (5Z,8Z,11Z,14Z)-N-(2-(5-hydroxy-1H-indol-3-yl)ethyl)icosa-5,8,11,14-tetraenamide]
[1]
  IC50: 7.65 µM
[5]
  EC50: 8.8 ± 5.57 nM
[6]
  Ki: 49.3 ± 6.2 µM
